Among the data in US20240239775A1, “FXR REGULATOR, PREPARATION METHOD THEREFOR, PHARMACEUTICAL COMPOSITION THEREOF AND USE THEREOF” (QINGDAO RUIJI MEDICAL TECHNOLOGY CO., LTD., priority 2021, published 2024) are IC50 values, retold here.

The assay concerns the target T1, FXR (Homo sapiens, UniProt Q96RI1).
T1 construct: 5 μL of 20 nM FXR-LBD Complete Coregulator buffer G; purchased ThermoFisher PV4833
T1 sequence (Q96RI1 262-486 limits assumed): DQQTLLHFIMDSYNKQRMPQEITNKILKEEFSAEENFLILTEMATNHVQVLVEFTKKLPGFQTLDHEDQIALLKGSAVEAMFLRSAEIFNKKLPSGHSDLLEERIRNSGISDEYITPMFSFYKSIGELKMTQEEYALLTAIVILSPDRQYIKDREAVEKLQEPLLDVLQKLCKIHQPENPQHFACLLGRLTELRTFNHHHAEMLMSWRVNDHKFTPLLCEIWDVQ
Nature of the assay: FXR antagonist screening by TR-FRET (LanthaScreen TR-FRET FXR co-activation assay kit). The format is biochemical. The settings on record: TR-FRET with CDCA, geometric means of at least two independent runs. The essentials:
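FXR-LBD (20 nM working solution) mixed with compound, CDCA (200 μM working solution) as agonist, Fluorescein-SRC2-2 and Tb-anti-GST antibody in Coregulator buffer G; 10 h at room temperature. Coactivator recruitment read by TR-FRET, triplicate wells.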
In general terms: Time-resolved FRET reads energy transfer from a long-lived donor to a nearby acceptor.

The mark [1] stands for this setting: Table 1.1, FXR antagonistic activity.
Setting [2] is: Table 1.2, FXR antagonistic activity.

The IC50 is the concentration that inhibits the measured activity by half. A higher IC50 goes with weaker potency in that assay.

Regarding `CCOC(=O)c1oc2ccc(S(=O)(=O)N(CCc3ccccc3)Cc3ccccc3N3CCN(C(C)=O)CC3)cc2c1C` [Example M10-100, ethyl 3-methyl-5-(N-(2-(4-acetylpiperazin-1-yl)benzyl)-N-phenethylsulfamoyl)benzofuran-2-carboxylate], under setting [1], the half-inhibitory concentration (IC50) lay within 50 to 100 µM.

`CCOC(=O)c1oc2ccc(S(=O)(=O)N(CCc3ccccc3)Cc3ccccc3N3CCN(S(C)(=O)=O)CC3)cc2c1C` [Example M10-102, ethyl 3-methyl-5-(N-(2-(4-methanesulfonylpiperazin-1-yl)benzyl)-N-phenethylsulfamoyl)benzofuran-2-carboxylate] came in with an IC50 under setting [1] of 50 to 100 µM.

Under setting [1], `CCOC(=O)c1oc2ccc(S(=O)(=O)N(CCc3ccccc3)Cc3ccccc3N3CCN(C(=O)CC(C)(C)C)CC3)cc2c1C` [Example M10-103, ethyl 3-methyl-5-(N-(2-(4-(3,3-dimethylbutyryl)piperazin-1-yl)benzyl)-N-phenethylsulfamoyl)benzofuran-2-carboxylate] displayed an IC50 of 50 to 100 µM.

Consider `CCOC(=O)c1oc2ccc(S(=O)(=O)N(CCc3ccccc3)Cc3ccccc3N3CCN(Cc4ccccc4)CC3)cc2c1C` [Example M10-104, ethyl 3-methyl-5-(N-(2-(4-benzylpiperazin-1-yl)benzyl)-N-phenethylsulfamoyl)benzofuran-2-carboxylate], for which the IC50 under setting [1] is 50 to 100 µM.

The compound `CCOC(=O)c1oc2ccc(S(=O)(=O)N(CCc3ccccc3)Cc3ccccc3N3CCN(C(=O)c4ccccc4)CC3)cc2c1C` [Example M10-105, ethyl 3-methyl-5-(N-(2-(4-benzoylpiperazin-1-yl)benzyl)-N-phenethylsulfamoyl)benzofuran-2-carboxylate] came in with an IC50 under setting [1] of 50 to 100 µM.

`CCOC(=O)c1oc2ccc(S(=O)(=O)N(CCc3ccccc3)c3ccccc3N3CCN(C(=O)c4ccc(C)cc4)CC3)cc2c1C` [Example M10-106, ethyl 3-methyl-5-(N-(2-(4-(4-methylbenzoyl)piperazin-1-yl)phenyl)-N-phenethylsulfamoyl)benzofuran-2-carboxylate] gave an IC50 under setting [2] of 50 to 100 µM.

`CCOC(=O)c1oc2ccc(S(=O)(=O)N(CCc3ccccc3)c3ccccc3N3CCN(C(=O)c4ccccc4C)CC3)cc2c1C` [Example M10-107, Ethyl 3-methyl-5-(N-(2-(4-(2-methylbenzoyl)piperazin-1-yl)phenyl)-N-phenethylsulfamoyl)benzofuran-2-carboxylate] registered an IC50 under setting [2] of 50 to 100 µM.

As to `CCOC(=O)c1oc2ccc(S(=O)(=O)N(CCc3ccccc3)c3ccccc3N3CCN(C(=O)c4cccc(C)c4)CC3)cc2c1C` [Example M10-108, ethyl 3-methyl-5-(N-(2-(4-(3-methylbenzoyl)piperazin-1-yl)phenyl)-N-phenethylsulfamoyl)benzofuran-2-carboxylate], the IC50 under setting [2] is 50 to 100 µM.

For the compound `CCOC(=O)c1oc2ccc(S(=O)(=O)N(CCc3ccccc3)c3ccccc3N3CCN(C(=O)c4ccc(NC(C)=O)cc4)CC3)cc2c1C` [Example M10-109, Ethyl 5-(N-(2-(4-(4-Acetylaminobenzoyl)piperazin-1-yl)phenyl)-N-phenethylsulfamoyl)-3-methyl benzofuran-2-carboxylate], the IC50 under setting [2] is 50 to 100 µM.

Consider `CCOC(=O)c1oc2ccc(S(=O)(=O)N(CCc3ccccc3)c3ccccc3N3CCN(C(=O)c4ccc(C(F)(F)F)cc4)CC3)cc2c1C` [Example M10-110], for which the IC50 under setting [2] lay in the range of 50 to 100 µM.

In the case of `CCOC(=O)c1oc2ccc(S(=O)(=O)N(CCc3ccccc3)c3ccccc3N3CCN(C(=O)c4ccc(C#N)cc4)CC3)cc2c1C` [Example M10-111], the IC50 under setting [2] fell in the range of 50 to 100 µM.

In turn, `CCOC(=O)c1oc2ccc(S(=O)(=O)N(CCc3ccccc3)c3ccccc3N3CCN(C(=O)c4ccc(F)cc4)CC3)cc2c1C` [Example M10-112, Ethyl 5-(N-(2-(4-(4-fluorobenzoyl)piperazin-1-yl)phenyl)-N-phenethylsulfamoyl)-3-methylbenzofuran-2-carboxylate] had an IC50 under setting [2] of 50 to 100 µM.

Under setting [2], `CCOC(=O)c1oc2ccc(S(=O)(=O)N(CCc3ccccc3)c3ccccc3N3CCN(C(=O)c4ccc(NC(=O)OC(C)(C)C)cc4)CC3)cc2c1C` [Example M10-113, Ethyl-(N-(2-(4-(4-((tert-butoxycarbonyl)amino)benzoyl)piperazin-1-yl)phenyl)-N-phenethylsulfamoyl)-3-methylbenzofuran-2-carboxylate] registered an IC50 of 50 to 100 µM.

Take `CCOC(=O)c1oc2ccc(S(=O)(=O)N(CCc3ccccc3)c3ccccc3N3CCN(C(=O)c4ccc([N+](=O)[O-])cc4)CC3)cc2c1C` [Example M10-114, Ethyl 3-methyl-5-(N-(2-(4-(4-nitrobenzoyl)piperazin-1-yl)phenyl)-N-phenethylsulfamoyl)benzofuran-2-carboxylate]: under setting [2], the concentration for half-maximal inhibition (IC50) lay in the range of 50 to 100 µM.

Compound `CCOC(=O)c1oc2ccc(S(=O)(=O)N(CCc3ccccc3)c3ccccc3N3CCN(C(=O)c4ccc(C(C)=O)cc4)CC3)cc2c1C` [Example M10-115, Ethyl 5-(N-(2-(4-(4-acetylbenzoyl)piperazin-1-yl)phenyl)-N-phenethylsulfamoyl)-3-methylbenzofuran-2-carboxylate] returned an IC50 under setting [2] of 50 to 100 µM.

With `CCOC(=O)c1oc2ccc(S(=O)(=O)N(CCc3ccccc3)c3ccccc3N3CCN(C(=O)c4cccnc4)CC3)cc2c1C` [Example M10-116, Ethyl 3-methyl-5-(N-(2-(4-nicotinoylpiperazin-1-yl)phenyl)-N-phenethylsulfamoyl)benzofuran-2-carboxylate], the IC50 under setting [2] is 50 to 100 µM.

The compound `CCOC(=O)c1oc2ccc(S(=O)(=O)N(CCc3ccccc3)c3ccccc3N3CCN(C(=O)c4ccccn4)CC3)cc2c1C` [Example M10-117, ethyl 3-methyl-5-(N-phenethyl-N-(2-(4-pyridineformylpiperazin-1-yl)phenyl)sulfamoyl)benzofuran-2-carboxylate] displayed an IC50 under setting [2] of 50 to 100 µM.

In the case of `CCOC(=O)c1oc2ccc(S(=O)(=O)N(CCc3ccccc3)c3ccccc3N3CCN(C(=O)c4cccs4)CC3)cc2c1C` [Example M10-118, Ethyl 3-methyl-5-(N-phenethyl-N-(2-(4-(thiophene-2-carbonyl)piperazin-1-yl)phenyl)sulfamoyl)benzofuran-2-carboxylate], under setting [2], the IC50 lay in the range of 50 to 100 µM.

Take `CCOC(=O)c1oc2ccc(S(=O)(=O)N(CCc3ccccc3)c3ccccc3N3CCN(C(=O)c4ccsc4)CC3)cc2c1C` [Example M10-119, Ethyl 3-methyl-5-(N-phenethyl-N-(2-(4-(thiophene-3-carbonyl)piperazin-1-yl)phenyl)sulfamoyl)benzofuran-2-carboxylate]: the IC50 under setting [2] was in the range of 50 to 100 µM.

For `C/C=C/C(=O)N1CCN(c2ccccc2N(CCc2ccccc2)S(=O)(=O)c2ccc3oc(C(=O)OCC)c(C)c3c2)CC1` [Example M10-120, (E)ethyl-5-(N-(2-(4-(but-2-enoyl)piperazin-1-yl)phenyl)-N-phenethylsulfamoyl)-3-methylbenzofuran-2-carboxylate], the IC50 under setting [2] fell in the range of 50 to 100 µM.

Compound `CCOC(=O)c1oc2ccc(S(=O)(=O)N(CCc3ccccc3)c3ccccc3N3CCN(C(=O)c4ccco4)CC3)cc2c1C` [Example M10-121, Ethyl 5-(N-(2-(4-(furan-2-carbonyl)piperazin-1-yl)phenyl)-N-phenethylsulfamoyl)-3-methylbenzofuran-2-carboxylate] registered an IC50 under setting [2] of 50 to 100 µM.

`CCOC(=O)c1oc2ccc(S(=O)(=O)N(CCc3ccccc3)c3ccccc3N3CCN(C(=O)C4CCCC4)CC3)cc2c1C` [Example M10-122, Ethyl 5-(N-(2-(4-(cyclopentanecarbonyl)piperazin-1-yl)phenyl)-N-phenethylsulfamoyl)-3-methylbenzofuran-2-carboxylate] returned an IC50 under setting [2] of 50 to 100 µM.

As to `CCOC(=O)c1oc2ccc(S(=O)(=O)N(CCc3ccccc3)c3ccccc3N3CCN(C(=O)c4ccc(Br)s4)CC3)cc2c1C` [Example M10-123, Ethyl 5-(N-(2-(4-(5-bromothiophene-2-carbonyl)piperazin-1-yl)phenyl)-N-phenethylsulfamoyl)-3-methylbenzofuran-2-carboxylate], the IC50 under setting [2] lay within 50 to 100 µM.

Under setting [2], `CCOC(=O)c1oc2ccc(S(=O)(=O)N(CCc3ccccc3)c3ccccc3N3CCN(C(=O)c4ccc[nH]4)CC3)cc2c1C` [Example M10-124, Ethyl 5-(N-(2-(4-(1H-pyrrole-2-carbonyl)piperazin-1-yl)phenyl)-N-phenethylsulfamoyl)-3-methylbenzofuran-2-carboxylate] registered an IC50 of 50 to 100 µM.

With `CCOC(=O)c1oc2ccc(S(=O)(=O)N(CCc3ccccc3)c3ccccc3N3CCN(C(=O)c4sccc4Br)CC3)cc2c1C` [Example M10-125, ethyl 5-(N-(2-(4-(3-bromothiophene-2-carbonyl)piperazin-1-yl)phenyl)-N-phenethylsulfamoyl)-3-methylbenzofuran-2-carboxylate], the IC50 under setting [2] was in the range of 50 to 100 µM.

`CCOC(=O)c1oc2ccc(S(=O)(=O)N(CCc3ccccc3)c3ccccc3N3CCN(C(=O)c4sccc4Cl)CC3)cc2c1C` [Example M10-126, Ethyl 5-(N-(2-(4-(3-chlorothiophene-2-carbonyl)piperazin-1-yl)phenyl)-N-phenethylsulfamoyl)-3-methylbenzofuran-2-carboxylate]: the IC50 under setting [2] lay within 50 to 100 µM.

Consider `CCOC(=O)c1oc2ccc(S(=O)(=O)N(CCc3ccccc3)c3ccccc3N3CCN(C(=O)c4cc(Br)cs4)CC3)cc2c1C` [Example M10-127, Ethyl 5-(N-(2-(4-(4-bromothiophene-2-carbonyl)piperazin-1-yl)phenyl)-N-phenethylsulfamoyl)-3-methylbenzofuran-2-carboxylate], for which the IC50 under setting [2] is 50 to 100 µM.
